Data taken from patent US11478451B1, “Macrocyclic chlorine substituted indole derivatives” (Bayer Aktiengesellschaft, priority 2017, dated 2022).
Structures can show the parent of a compound that is named as a salt. Where two headings read alike, the source gives them in different places.

Tests used:
SUDHL5 cells [1] = experiment: Induction of caspase-3/7 activity (Caspase-Glo 3/7), SUDHL5; type: cell-based; conditions: EC50, median, SUDHL5, 3 h treatment
Experimental: (§1) Induction of Caspase-3/7 Activity Upon Treatment of Cells with Selected Compounds
(§2) The BH3-domain of MCL-1 sequesters pro-apoptotic proteins, thereby inhibiting apoptosis. In contrast, MCL-1 inhibitors are expected to antagonize this effect leading to an increase in apoptosis, which can be determined by measuring the activity of caspase-3/7.
(§3) The activity of caspase-3/7 was determined in DLBCL (Diffuse large B-cell lymphoma) cell lines (SUDHL5 and SUDHL10) upon treatment with different compounds, using the Caspase-Glo® 3/7 reagent from Promega (G8092).
(§4) Rim wells were excluded. The cells were incubated for 3 h hours in a humidified incubator at 37° C.
(§5) For the evaluation of the results, the background measured with “medium-only” was subtracted from all other values.

SUDHL10 cells [2] = experiment: Induction of caspase-3/7 activity (Caspase-Glo 3/7), SUDHL10; type: cell-based; conditions: EC50, median, SUDHL10, 3 h treatment
Experimental: as §1, §2, §3, §4, §5

SUDHL5 cells [3] = experiment: Antiproliferation assay (CellTiter-Glo, 72 h), SUDHL5; type: cell-based; conditions: IC50, median, SUDHL5, 72 h, read-out: Antiproli SUDHL5 [M] (median)
Experimental: (§6) Assessment of the Anti-Proliferative Effect of Compounds in Different Cell Lines
(§7) The impact of compounds on the proliferation of different cell lines was assessed using the CellTiter-Glo® Luminescent Cell Viability reagent from Promega (G7573).
(§8) In parallel, cells were plated in a reference (day 0) plate for time zero determination.
(§9) Rim wells were excluded. The cells were incubated for 72 h hours in a humidified incubator at 37° C. The day 0 plate was measured by adding 30 μL/well of CTG solution (CellTiter-Glo® Luminescent Cell Viability reagent, Promega G7573) to time zero wells in the reference plate followed by a 10 minutes incubation and luminescence reading at 0.1 ms. using the PHERAstar FS microplate reader (BMG Labtech).
(§10) After 72 h incubation, the treated plates were measured in the same way as the day 0 plate mentioned above.

AMO-1 cells = experiment: Antiproliferation assay (CellTiter-Glo, 72 h), AMO-1; type: cell-based; conditions: IC50, median, AMO-1, 72 h, read-out: Antiproli AMO-1 [M] median
Experimental: as §6, §7, §8, §9, §10

SUDHL5 cells [4] = experiment: Induction of cytotoxicity (CellTiter-Glo, 5 h), SUDHL5; conditions: SUDHL5, 5 h
SUDHL10 cells [5] = experiment: Induction of cytotoxicity (CellTiter-Glo, 5 h), SUDHL10; conditions: SUDHL10, 5 h
Experimental: Therefore, cytotoxicity assays were run in parallel in SUDHL5 and SUDHL10 cells.
The different cell lines were plated in culture medium (RPMI 1640 [GIBCO #22400-089] supplemented with 10% Fetal Bovine Serum) at a density of 3,300 cells in 30 μL/well in a sterile, solid black, flat bottom, polystyrene, TC-treated 384-well microplate (Corning #3571) using Multidrop Combi Reagent Dispenser. As a control, medium without cells was also added to the plate. Cells were incubated in a humidified incubator at 37° C. overnight. […] Rim wells were excluded. The cells were incubated for 5 h hours in a humidified incubator at 37° C. After this incubation, 30 μL of CellTiter-Glo® Luminescent Cell Viability reagent (Promega, G7573) was added to each well using the Multidrop Combi Reagent Dispenser, followed by 15 min incubation on a shaker at room temperature. Finally, luminescence was read at 0.1 ms, with a gain of 3000 using the PHERAstar FS microplate reader (BMG Labtech).

[6] = read-out: Cytotox SUDHL5 [M] (median), IC50, median
[7] = read-out: Cytotox SUDHL10 [M] (median), IC50, median
[8] = Homo sapiens, SU-DHL-5, 5 h, read-out: Cytotox SUDHL5 [M] (median), IC50, median
[9] = Homo sapiens, SU-DHL10, 5 h, read-out: Cytotox SUDHL10 [M] (median), IC50, median

Row | Structure (SMILES) | EC50 (SUDHL5 cells [1]) | EC50 (SUDHL10 cells [2]) | EC50 (SUDHL5 cells [1]; Homo sapiens, SU-DHL-5, 3 h) | IC50 (SUDHL5 cells [3]; Homo sapiens, SU-DHL-5, 72 h) | IC50 (SUDHL5 cells [4]; [6]) | IC50 (SUDHL10 cells [5]; [7]) | IC50 (AMO-1 cells; Homo sapiens, AMO1, 72 h) | IC50 (SUDHL5 cells [4]; [8]) | IC50 (SUDHL10 cells [5]; [9]) | further results
1 | CCc1nn(C)c2c1-c1c(Cl)ccc3c(CCCOc4cccc5cc(F)ccc45)c(C(=O)O)n(c13)CCCCN(C)C2 (single isomer, unassigned; enantiomer 1) [Example 40, 4-chloro-3-ethyl-7-{3-[(6-fluoronaphthalen-1-yl)oxy]propyl}-1,14-dimethyl-10,11,12,13,14,15-hexahydro-1H-pyrazolo[3′,4′:8,9][1,6]diazacycloundecino[10,11,1-hi]indole-8-carboxylic acid (Enantiomer 1)] | – | – | 0.2 µM | 2e-07 M | – | – | 3.6e-07 M | – | – | –
2 | Cc1c2c(nn1C)COCC1CCC1Cn1c(C(=O)O)c(CCCOc3cccc4ccccc34)c3ccc(Cl)c-2c31 (single isomer, unassigned; enantiomer 1) [Example 78, 3-chloro-4,5-dimethyl-15-{3-[(naphthalen-1-yl)oxy]propyl}-5,7,9,9a,10,11,11a,12-octahydrocyclobuta[3,4]pyrazolo[4′,3′:9,10][1,6]oxazacycloundecino[8,7,6-hi]indole-14-carboxylic acid (Enantiomer 1)] | – | – | 0.67 µM | – | – | – | 3e-06 M | 8.2e-07 M | 3.1e-06 M | EC50 (SUDHL10 cells [2]; listed as 078): 3.8 µM
3 | CCc1c2c(nn1C)COCCCCn1c(C(=O)O)c(CCCOc3cccc4cc(F)ccc34)c3ccc(Cl)c-2c31 (single isomer, unassigned; enantiomer 1) [Example 69, 4-chloro-3-ethyl-7-{3-[(6-fluoronaphthalen-1-yl)oxy]propyl}-2-methyl-2,10,11,12,13,15-hexahydropyrazolo[4′,3′:9,10][1,6]oxazacycloundecino[8,7,6-hi]indole-8-carboxylic acid (Enantiomer 1)] | – | – | 1.8 µM | 4.2e-06 M | – | – | – | 2.3e-06 M | 7.3e-06 M | EC50 (SUDHL10 cells [2]; Homo sapiens, SU-DHL10, 3 h): 8.3 µM
4 | CCc1c2c(nn1C)CCCCCCn1c(C(=O)O)c(CCCOc3cccc4ccccc34)c3ccc(Cl)c-2c31 (racemic) [Example 51, (rac)-4-chloro-3-ethyl-2-methyl-7-{3-[(naphthalen-1-yl)oxy]propyl}-10,11,12,13,14,15-hexa-hydro-2H-pyrazolo[4′,3′:4,5]azacycloundecino[3,2,1-hi]indole-8-carboxylic acid] | – | – | – | 6.7e-06 M | – | – | – | 8.4e-06 M | 8.6e-06 M | –
5 | CCc1nn(CCN2CCOCC2)c2c1-c1c(Cl)ccc3c(CCCOc4cccc5ccccc45)c(C(=O)O)n(c13)CCCCN(C)C2 (racemic) [Example 45, (rac)-4-chloro-3-ethyl-14-methyl-1-[2-(morpholin-4-yl)ethyl]-7-{3-[(naphthalen-1-yl)oxy]propyl}-10,11,12,13,14,15-hexahydro-1H-pyrazolo[3′,4′:8,9][1,6]diazacycloundecino[10,11,1-hi]indole-8-carboxylic acid] | – | – | 9.4 µM | 7.2e-06 M | – | – | – | 8.1e-06 M | – | –
6 | CCc1c2c(nn1C)COCC1CC1Cn1c(C(=O)O)c(CCCOc3cccc4cc(F)ccc34)c3ccc(Cl)c-2c31 (single isomer, unassigned; (-)) [Example 105, (−)-3-chloro-4-ethyl-14-{3-[(6-fluoronaphthalen-1-yl)oxy]propyl}-5-methyl-5,7,9a,10,10a,11-hexahydro-9H-cyclopropa[3,4]pyrazolo[4′,3′:9,10][1,6]oxazacycloundecino[8,7,6-hi]indole-13-carboxylic acid N-ethylethanamine salt] | 0.13 µM | 0.12 µM | – | – | – | 2.2e-07 M | – | – | – | –
7 | CCc1c2c(nn1C)COCC(O)CCn1c(C(=O)O)c(CCCOc3cccc4cc(F)ccc34)c3ccc(Cl)c-2c31 (stereo not drawn) [Example 101, 4-chloro-3-ethyl-7-{3-[(6-fluoronaphthalen-1-yl)oxy]propyl}-12-hydroxy-2-methyl-2,10,11,12,13,15-hexahydropyrazolo[4′,3′:9,10][1,6]oxazacycloundecino[8,7,6-hi]indole-8-carboxylic acid-N-ethylethanamine salt] | 5.9 µM | 6.1 µM | – | – | 7.3e-06 M | 7.7e-06 M | – | – | – | –
8 | CCc1nn(CCN2CCOCC2)c2c1-c1c(Cl)ccc3c(CCCOc4cccc5ccccc45)c(C(=O)O)n(c13)C/C=C\CN(C)C2 (racemic) [Example 42, (rac)-(11Z)-4-chloro-3-ethyl-14-methyl-1-[2-(morpholin-4-yl)ethyl]-7-{3-[(naphthalen-1-yl)oxy]-propyl}-10,13,14,15-tetrahydro-1H-pyrazolo[3′,4′:8,9][1,6]diazacycloundecino[10,11,1-hi]indole-8-carboxylic acid] | – | – | 2.8 µM | 2.7e-06 M | – | – | – | 4e-06 M | – | EC50 (SUDHL10 cells [2]; Homo sapiens, SU-DHL10, 3 h): 9.4 µM

Further lines, with some results ahead:

Row | EC50 (SUDHL5 cells [1]) | EC50 (SUDHL10 cells [2]) | EC50 (SUDHL5 cells [1]; Homo sapiens, SU-DHL-5, 3 h) | IC50 (SUDHL5 cells [3]; Homo sapiens, SU-DHL-5, 72 h) | Structure (SMILES) | IC50 (SUDHL5 cells [4]; [6]) | IC50 (SUDHL10 cells [5]; [7]) | IC50 (AMO-1 cells; Homo sapiens, AMO1, 72 h) | IC50 (SUDHL5 cells [4]; [8]) | IC50 (SUDHL10 cells [5]; [9]) | further results
9 | 2.4 µM | 2.6 µM | – | – | CCc1c2c(nn1C)CCCN(C)CCn1c(C(=O)O)c(CCCOc3cccc4cc(F)ccc34)c3ccc(Cl)c-2c31 (single isomer, unassigned) [Example 117, (−)-4-chloro-3-ethyl-7-{3-[(6-fluoronaphthalen-1-yl)oxy]propyl}-2,12-dimethyl-10,11,12,13,14,15-hexahydro-2H-pyrazolo[3′,4′:8,9][1,4]diazacycloundecino[10,11,1-hi]indole-8-carboxylic acid] | 2.6e-06 M | 2.3e-06 M | – | – | – | IC50 (SUDHL5 cells [3]): 3.4e-06 M; IC50 (AMO-1 cells): 1.2e-06 M
10 | 6.3 µM | 7.8 µM | – | – | CCc1c2c(nn1C)COCC1CC1Cn1c(C(=O)O)c(CCCOc3cccc4cc(F)ccc34)c3ccc(Cl)c-2c31 (single isomer, unassigned; (-)) [Example 108, (−)-3-chloro-4-ethyl-14-{3-[(6-fluoronaphthalen-1-yl)oxy]propyl}-5-methyl-5,7,9a,10,10a,11-hexahydro-9H-cyclopropa[3,4]pyrazolo[4′,3′:9,10][1,6]oxazacycloundecino[8,7,6-hi]indole-13-carboxylic acid] | 7e-06 M | – | – | – | – | IC50 (SUDHL5 cells [3]): 1e-05 M; IC50 (AMO-1 cells): 1.3e-06 M
11 | 4.3 µM | 6.3 µM | – | – | CCc1c2c(nn1C)CN(C)CCCn1c(C(=O)O)c(CCCOc3cccc4cc(F)ccc34)c3ccc(Cl)c-2c31 [Example 114, (−)-2-chloro-11-ethyl-1-{3-[(6-fluoronaphthalen-1-yl)oxy]propyl}-7,10-dimethyl-4,5,6,7,8,10-hexahydropyrazolo[3′,4′:7,8][1,5]diazecino[9,10,1-hi]indole-2-carboxylic acid salt] | 5.7e-06 M | 5.9e-06 M | – | – | – | IC50 (AMO-1 cells): 4.4e-06 M
12 | – | – | – | 5.1e-06 M | CCc1c2c(nn1C)CN(CCC1CCOCC1)CCCCn1c(C(=O)O)c(CCCOc3cccc4cc(F)ccc34)c3ccc(Cl)c-2c31 (single isomer, unassigned; enantiomer 2) [Example 137, 4-chloro-3-ethyl-7-{3-[(6-fluoronaphthalen-1-yl)oxy]propyl}-2-methyl-14-[2-(oxan-4-yl)ethyl]-10,11,12,13,14,15-hexahydro-2H-pyrazolo[3′,4′:8,9][1,6]diazacycloundecino[10,11,1-hi]indole-8-carboxylic acid N-ethylethanamine (Enantiomer 2)] | – | – | 5e-06 M | 8.2e-06 M | 7.7e-06 M | –
13 | – | – | 7.3 µM | 7.5e-06 M | CCc1c2c(nn1C)CNCCCCn1c(C(=O)O)c(CCCOc3cccc4cc(F)ccc34)c3ccc(Cl)c-2c31 (racemic) [Example 130, (rac)-4-chloro-3-ethyl-7-{3-[(6-fluoronaphthalen-1-yl)oxy]propyl}-2-methyl-10,11,12,13,14,15-hexahydro-2H-pyrazolo[3′,4′:8,9][1,6]diazacycloundecino[10,11,1-hi]indole-8-carboxylic acid] | – | – | 6.3e-06 M | 7.1e-06 M | – | –
